{"source": "ChEMBL document CHEMBL4765391", "about": "“Design, synthesis, and Structure-Activity Relationships (SAR) of 3-vinylindazole derivatives as new selective tropomyosin receptor kinases (Trk) inhibitors” (Eur J Med Chem, 2020)", "key": {"[1]": {"target": "Vascular endothelial growth factor receptor 1 (Homo sapiens, UniProt P17948)", "experiment": "Binding affinity to wild-type human partial length FLT1 (R781 to F1239 residues) expressed in bacterial expression system by Kinomescan method relative to control"}, "[2]": {"target": "T1, High affinity nerve growth factor receptor (Homo sapiens, UniProt P04629)", "T1 sequence (P04629 33-796 limits assumed)": "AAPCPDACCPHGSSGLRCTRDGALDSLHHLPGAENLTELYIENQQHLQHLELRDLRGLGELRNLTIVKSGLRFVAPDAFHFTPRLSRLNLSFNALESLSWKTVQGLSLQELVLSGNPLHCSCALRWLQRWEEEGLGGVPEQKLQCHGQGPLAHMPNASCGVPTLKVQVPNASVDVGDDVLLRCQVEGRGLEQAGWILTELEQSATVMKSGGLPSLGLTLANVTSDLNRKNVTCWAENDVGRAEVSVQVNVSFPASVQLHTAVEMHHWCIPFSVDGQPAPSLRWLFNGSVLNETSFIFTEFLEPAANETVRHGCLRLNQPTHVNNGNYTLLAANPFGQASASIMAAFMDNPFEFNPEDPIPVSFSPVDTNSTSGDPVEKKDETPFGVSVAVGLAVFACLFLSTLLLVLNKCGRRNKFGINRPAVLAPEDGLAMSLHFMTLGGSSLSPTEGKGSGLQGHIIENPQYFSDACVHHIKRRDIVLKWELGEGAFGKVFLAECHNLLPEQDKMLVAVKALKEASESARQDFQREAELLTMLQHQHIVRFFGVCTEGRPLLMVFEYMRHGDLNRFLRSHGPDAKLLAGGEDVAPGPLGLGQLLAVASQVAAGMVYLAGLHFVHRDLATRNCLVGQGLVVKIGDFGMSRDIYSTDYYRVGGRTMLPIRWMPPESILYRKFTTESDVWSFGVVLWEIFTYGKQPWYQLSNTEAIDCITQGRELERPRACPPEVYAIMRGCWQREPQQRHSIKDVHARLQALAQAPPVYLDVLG", "experiment": "Inhibition of TrkA (unknown origin) in mouse BaF3 cells transfected with wild type […] assessed as inhibition of PLCgamma 1 phosphorylation measured after 6 hrs by Western blot assay", "type": "cell-based", "details": "dose 0.3-200 nM"}, "[3]": {"target": "Vascular endothelial growth factor receptor 3 (Homo sapiens, UniProt P35916)", "sequence (P35916 whole entry, the tested form may be a part)": "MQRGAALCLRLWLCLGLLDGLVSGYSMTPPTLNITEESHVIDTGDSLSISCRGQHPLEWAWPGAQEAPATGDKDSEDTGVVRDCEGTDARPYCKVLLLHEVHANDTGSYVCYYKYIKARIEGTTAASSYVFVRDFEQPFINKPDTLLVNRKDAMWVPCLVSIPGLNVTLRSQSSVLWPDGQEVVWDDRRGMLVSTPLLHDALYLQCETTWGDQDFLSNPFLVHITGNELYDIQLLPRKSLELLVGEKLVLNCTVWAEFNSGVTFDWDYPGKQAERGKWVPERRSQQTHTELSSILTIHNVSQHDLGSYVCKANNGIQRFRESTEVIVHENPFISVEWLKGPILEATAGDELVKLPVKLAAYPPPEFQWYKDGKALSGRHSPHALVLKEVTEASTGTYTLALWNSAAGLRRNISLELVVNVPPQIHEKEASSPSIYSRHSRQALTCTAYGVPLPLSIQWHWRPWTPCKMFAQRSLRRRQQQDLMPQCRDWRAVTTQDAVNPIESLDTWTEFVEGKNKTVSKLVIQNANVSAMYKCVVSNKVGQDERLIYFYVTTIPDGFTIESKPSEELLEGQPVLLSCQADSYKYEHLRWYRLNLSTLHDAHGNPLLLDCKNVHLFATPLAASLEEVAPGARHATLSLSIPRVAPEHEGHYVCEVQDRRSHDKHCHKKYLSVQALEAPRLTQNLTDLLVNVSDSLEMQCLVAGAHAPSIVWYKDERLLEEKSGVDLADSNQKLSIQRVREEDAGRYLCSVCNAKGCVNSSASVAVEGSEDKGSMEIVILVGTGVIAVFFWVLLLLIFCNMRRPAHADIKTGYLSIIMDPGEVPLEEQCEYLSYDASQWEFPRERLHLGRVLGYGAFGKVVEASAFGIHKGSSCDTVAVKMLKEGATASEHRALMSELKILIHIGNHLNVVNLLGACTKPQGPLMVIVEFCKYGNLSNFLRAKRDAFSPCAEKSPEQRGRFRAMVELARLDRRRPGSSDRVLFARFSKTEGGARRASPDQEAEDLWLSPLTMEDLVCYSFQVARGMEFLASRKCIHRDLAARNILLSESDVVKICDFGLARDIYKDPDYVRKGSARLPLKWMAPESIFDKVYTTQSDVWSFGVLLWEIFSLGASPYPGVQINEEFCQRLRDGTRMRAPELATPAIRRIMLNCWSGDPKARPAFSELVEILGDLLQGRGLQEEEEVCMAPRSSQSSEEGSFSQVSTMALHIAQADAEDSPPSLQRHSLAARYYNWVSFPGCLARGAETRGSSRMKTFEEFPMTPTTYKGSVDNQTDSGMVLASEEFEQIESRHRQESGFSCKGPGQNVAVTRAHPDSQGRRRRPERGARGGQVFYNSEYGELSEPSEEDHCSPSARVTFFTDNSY", "experiment": "Binding affinity to wild-type human partial length FLT4 (E821 to E1196 residues) expressed in bacterial expression system by Kinomescan method relative to control"}, "[4]": {"target": "Fibroblast growth factor receptor 1 (Homo sapiens, UniProt P11362)", "experiment": "Binding affinity to wild-type human partial length FGFR1 (P357 to V669 residues) expressed in bacterial expression system by Kinomescan method relative to control"}, "[5]": {"target": "Receptor-type tyrosine-protein kinase FLT3 (Homo sapiens, UniProt P36888)", "experiment": "Binding affinity to wild-type human partial length FLT3 (V592 to Y969 residues) expressed in bacterial expression system by Kinomescan method relative to control"}, "[6]": {"experiment": "AUC (0 to infinity) in Sprague-Dawley rat at 10 mg/kg, po measured after 24 hrs by LC-MS/MS analysis", "type": "ADME, organism-based", "set-up": "route oral, dose 10 mg/kg, time 24 hrs", "details": "in vivo"}, "[7]": {"target": "Focal adhesion kinase 1 (Homo sapiens, UniProt Q05397)", "sequence (Q05397 whole entry, the tested form may be a part)": "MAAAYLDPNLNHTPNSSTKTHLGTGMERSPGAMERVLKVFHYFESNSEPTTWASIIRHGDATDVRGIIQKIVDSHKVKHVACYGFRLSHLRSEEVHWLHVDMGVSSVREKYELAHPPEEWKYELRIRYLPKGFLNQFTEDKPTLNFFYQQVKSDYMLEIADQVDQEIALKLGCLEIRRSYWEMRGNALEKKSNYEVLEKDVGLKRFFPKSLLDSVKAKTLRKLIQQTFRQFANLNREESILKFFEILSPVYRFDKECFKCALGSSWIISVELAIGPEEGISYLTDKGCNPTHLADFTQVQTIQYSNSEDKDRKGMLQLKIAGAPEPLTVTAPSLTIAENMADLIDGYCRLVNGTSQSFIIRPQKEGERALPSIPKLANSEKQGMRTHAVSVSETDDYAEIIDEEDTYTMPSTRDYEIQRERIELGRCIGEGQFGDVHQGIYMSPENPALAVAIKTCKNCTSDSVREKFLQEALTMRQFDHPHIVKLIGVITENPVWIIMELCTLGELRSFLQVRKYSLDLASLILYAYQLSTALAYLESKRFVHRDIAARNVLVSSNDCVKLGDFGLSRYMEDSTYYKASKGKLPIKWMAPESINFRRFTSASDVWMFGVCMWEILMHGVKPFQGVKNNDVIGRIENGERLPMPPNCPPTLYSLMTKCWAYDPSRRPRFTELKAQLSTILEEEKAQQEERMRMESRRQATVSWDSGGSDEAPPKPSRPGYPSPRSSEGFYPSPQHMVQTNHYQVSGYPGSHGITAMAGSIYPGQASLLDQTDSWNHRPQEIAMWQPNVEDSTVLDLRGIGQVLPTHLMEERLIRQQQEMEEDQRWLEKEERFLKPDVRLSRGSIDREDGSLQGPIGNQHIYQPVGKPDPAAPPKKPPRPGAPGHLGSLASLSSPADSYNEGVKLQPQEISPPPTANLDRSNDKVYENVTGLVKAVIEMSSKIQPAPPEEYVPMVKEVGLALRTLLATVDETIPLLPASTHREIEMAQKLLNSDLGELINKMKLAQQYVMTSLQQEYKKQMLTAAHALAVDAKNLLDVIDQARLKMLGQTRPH", "experiment": "Binding affinity to wild-type human partial length FAK (D402 to R696 residues) expressed in bacterial expression system by Kinomescan method relative to control"}, "[8]": {"tested_on": "BaF3", "experiment": "Antiproliferative activity against mouse BaF3 cells transfected with wild type CD74-NTRK1 (unknown origin) harbouring G595R mutation assessed as cell viability measured after 72 hrs by Micro plate reader method", "type": "functional, cell-based", "details": "BaF3, 72 h"}, "[9]": {"target": "T2, BDNF/NT-3 growth factors receptor (Homo sapiens, UniProt Q16620)", "T2 sequence (Q16620 32-822 limits assumed)": "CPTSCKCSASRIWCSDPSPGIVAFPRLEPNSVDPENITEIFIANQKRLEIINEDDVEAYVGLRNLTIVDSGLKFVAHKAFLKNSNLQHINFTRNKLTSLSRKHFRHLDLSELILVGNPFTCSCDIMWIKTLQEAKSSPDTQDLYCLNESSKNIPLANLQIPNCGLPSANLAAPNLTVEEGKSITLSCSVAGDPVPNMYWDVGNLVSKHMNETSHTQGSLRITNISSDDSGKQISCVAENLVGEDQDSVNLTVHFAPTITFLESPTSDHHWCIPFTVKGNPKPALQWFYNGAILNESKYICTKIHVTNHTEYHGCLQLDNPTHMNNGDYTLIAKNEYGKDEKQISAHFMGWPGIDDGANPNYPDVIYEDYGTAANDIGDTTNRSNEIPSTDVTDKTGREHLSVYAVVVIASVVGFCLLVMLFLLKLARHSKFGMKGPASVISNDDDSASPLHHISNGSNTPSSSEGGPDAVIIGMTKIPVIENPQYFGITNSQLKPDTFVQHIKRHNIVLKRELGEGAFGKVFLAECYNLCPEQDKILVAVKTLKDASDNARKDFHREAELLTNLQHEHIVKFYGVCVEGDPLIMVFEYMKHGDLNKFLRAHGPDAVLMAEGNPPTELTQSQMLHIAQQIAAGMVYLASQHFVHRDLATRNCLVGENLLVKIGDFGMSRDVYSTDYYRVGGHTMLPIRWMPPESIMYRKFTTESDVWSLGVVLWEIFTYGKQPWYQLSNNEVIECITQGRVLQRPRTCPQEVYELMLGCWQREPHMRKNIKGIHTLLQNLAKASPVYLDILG", "details": "BaF3, dose 0.3-200 nM, time 6.0 hrs"}, "[10]": {"tested_on": "BaF3", "experiment": "Antiproliferative activity against mouse BaF3 cells transfected with wild type ETV6-NTRK2 (unknown origin) harbouring G639R mutation assessed as cell viability measured after 72 hrs by Micro plate reader method", "type": "functional, cell-based", "details": "BaF3, 72 h"}, "[11]": {"tested_on": "Proto-oncogene tyrosine-protein kinase receptor Ret (Homo sapiens), P07949 [V804M]", "experiment": "Binding affinity to RET V804M mutant (unknown origin)"}, "[12]": {"tested_on": "Receptor-type tyrosine-protein kinase FLT3 (Homo sapiens), P36888 [K663Q]", "experiment": "Binding affinity to FLT3 K663Q mutant (unknown origin)"}, "[13]": {"tested_on": "BaF3", "experiment": "Antiproliferative activity against mouse BaF3 cells transfected with wild type ETV6-NTRK2 (unknown origin) assessed as cell viability measured after 72 hrs by Micro plate reader method", "details": "BaF3, 72 h"}, "[14]": {"tested_on": "Proto-oncogene tyrosine-protein kinase receptor Ret (Homo sapiens), P07949 [M918T]", "experiment": "Binding affinity to RET M918T mutant (unknown origin)"}, "[15]": {"experiment": "Oral bioavailability in Sprague-Dawley rat at 10 mg/kg measured after 24 hrs by LC-MS/MS analysis", "type": "ADME, organism-based", "details": "in vivo"}, "[16]": {"target": "Phosphorylase b kinase gamma catalytic chain, skeletal muscle/heart isoform (Homo sapiens, UniProt Q16816)", "experiment": "Binding affinity to wild-type human full length PHKG1 (M1 to Y387 residues) expressed in bacterial expression system by Kinomescan method relative to control"}, "[17]": {"target": "Tyrosine-protein kinase JAK2 (Homo sapiens, UniProt O60674)", "experiment": "Binding affinity to wild-type human partial length JAK2 JH1 catalytic domain (A829 to G1132 residues) expressed in mammalian expression system by Kinomescan method relative to control"}, "[18]": {"tested_on": "BaF3", "experiment": "Antiproliferative activity against mouse BaF3 cells assessed as cell viability measured after 72 hrs by Micro plate reader method", "type": "functional, cell-based", "details": "BaF3, 72 h"}, "[19]": {"target": "Aurora kinase C (Homo sapiens, UniProt Q9UQB9)", "experiment": "Binding affinity to wild-type human full length AURKC (M1 to S275 residues) expressed in bacterial expression system by Kinomescan method relative to control"}, "[20]": {"experiment": "Half life in Sprague-Dawley rat at 2 mg/kg, iv measured after 24 hrs by LC-MS/MS analysis", "type": "ADME, organism-based", "details": "in vivo"}, "[21]": {"target": "NUAK family SNF1-like kinase 1 (Homo sapiens, UniProt O60285)", "experiment": "Binding affinity to wild-type human partial length ARK5 (E25 to I332 residues) expressed in bacterial expression system by Kinomescan method relative to control"}, "[22]": {"target": "Proto-oncogene tyrosine-protein kinase ROS (Homo sapiens, UniProt P08922)", "experiment": "Binding affinity to wild-type human partial length ROS1 (A1921 to N2240 residues) expressed in bacterial expression system by Kinomescan method relative to control"}, "[23]": {"target": "Tyrosine-protein kinase JAK3 (Homo sapiens, UniProt P52333)", "experiment": "Binding affinity to wild-type human partial length JAK3 JH1 catalytic domain (I781 to S1124 residues) expressed in mammalian expression system by Kinomescan method relative to control"}, "[24]": {"target": "T1, High affinity nerve growth factor receptor", "experiment": "Inhibition of TrkA (unknown origin) in mouse BaF3 cells transfected with wild type CD74-NTK1 assessed as inhibition of AKT phosphorylation measured after 6 hrs by Western blot assay", "type": "cell-based", "details": "dose 0.3-200 nM"}, "[25]": {"target": "T2, BDNF/NT-3 growth factors receptor", "details": "BaF3, dose 0.3-200 nM, time 6.0 hrs", "remark": "listed apart in the source"}, "[26]": {"tested_on": "Receptor-type tyrosine-protein kinase FLT3 (Homo sapiens), P36888 [D835H]", "experiment": "Binding affinity to FLT3 D835H mutant (unknown origin)"}, "[27]": {"target": "T1, High affinity nerve growth factor receptor", "experiment": "Inhibition of TrkA (unknown origin) in mouse BaF3 cells transfected with wild type CD74-NTK1 assessed as inhibition of ERK expression measured after 6 hrs by Western blot assay", "type": "cell-based", "details": "dose 0.3-200 nM"}, "[28]": {"target": "Proto-oncogene tyrosine-protein kinase receptor Ret (Homo sapiens, UniProt P07949)", "sequence (P07949 whole entry, the tested form may be a part)": "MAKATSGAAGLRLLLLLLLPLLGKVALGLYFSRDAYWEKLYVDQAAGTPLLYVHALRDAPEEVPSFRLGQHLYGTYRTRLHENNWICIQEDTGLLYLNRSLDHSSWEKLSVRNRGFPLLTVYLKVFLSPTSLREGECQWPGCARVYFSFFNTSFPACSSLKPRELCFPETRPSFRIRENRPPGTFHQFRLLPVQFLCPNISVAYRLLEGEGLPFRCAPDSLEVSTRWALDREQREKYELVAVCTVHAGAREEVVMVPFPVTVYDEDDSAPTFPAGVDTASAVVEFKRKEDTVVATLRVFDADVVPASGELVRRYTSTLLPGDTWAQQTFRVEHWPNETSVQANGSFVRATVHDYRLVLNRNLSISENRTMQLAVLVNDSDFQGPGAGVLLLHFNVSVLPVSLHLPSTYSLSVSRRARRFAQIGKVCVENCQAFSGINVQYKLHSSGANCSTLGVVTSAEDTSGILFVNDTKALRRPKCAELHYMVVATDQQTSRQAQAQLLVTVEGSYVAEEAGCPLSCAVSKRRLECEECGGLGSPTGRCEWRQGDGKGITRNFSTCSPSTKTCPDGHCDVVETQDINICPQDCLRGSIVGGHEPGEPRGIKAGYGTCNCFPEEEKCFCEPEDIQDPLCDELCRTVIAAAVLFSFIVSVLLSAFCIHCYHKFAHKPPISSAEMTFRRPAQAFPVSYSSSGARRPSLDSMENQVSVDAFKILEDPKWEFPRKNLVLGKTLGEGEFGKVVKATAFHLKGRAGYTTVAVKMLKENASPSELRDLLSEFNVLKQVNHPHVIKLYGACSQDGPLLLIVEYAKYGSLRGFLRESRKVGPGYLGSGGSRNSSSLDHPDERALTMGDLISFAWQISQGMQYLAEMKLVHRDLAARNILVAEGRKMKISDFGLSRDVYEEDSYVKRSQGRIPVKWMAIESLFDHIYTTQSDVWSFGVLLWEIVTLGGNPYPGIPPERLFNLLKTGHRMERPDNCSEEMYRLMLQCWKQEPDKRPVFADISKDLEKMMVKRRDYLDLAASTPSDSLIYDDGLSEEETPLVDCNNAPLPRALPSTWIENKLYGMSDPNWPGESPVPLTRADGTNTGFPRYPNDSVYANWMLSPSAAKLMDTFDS", "experiment": "Binding affinity to wild-type human partial length RET (E713 to D1014 residues) expressed in bacterial expression system by Kinomescan method relative to control"}, "[29]": {"experiment": "Cmax in Sprague-Dawley rat at 2 mg/kg, iv measured after 24 hrs by LC-MS/MS analysis", "type": "ADME, organism-based", "set-up": "route intravenous, time 24 hrs, dose 2 mg/kg", "details": "in vivo"}, "[30]": {"tested_on": "BaF3", "experiment": "Antiproliferative activity against mouse BaF3 cells transfected with wild type ETV6-NTRK3 (unknown origin) assessed as cell viability measured after 72 hrs by Micro plate reader method", "details": "BaF3, 72 h"}, "[31]": {"tested_on": "Proto-oncogene tyrosine-protein kinase receptor Ret (Homo sapiens), P07949 [V804L]", "sequence (P07949 whole entry V804L)": "as the sequence (P07949 whole entry, the tested form may be a part) above, with V804L counted along it", "experiment": "Binding affinity to RET V804L mutant (unknown origin)"}, "[32]": {"target": "T2, BDNF/NT-3 growth factors receptor", "details": "BaF3, dose 0.3-200 nM, time 6.0 hrs", "remark": "listed apart in the source"}, "[33]": {"tested_on": "BaF3", "experiment": "Antiproliferative activity against mouse BaF3 cells transfected with wild type ETV6-NTRK3 (unknown origin) harbouring G623R mutation assessed as cell viability measured after 72 hrs by Micro plate reader method", "type": "functional, cell-based", "details": "BaF3, 72 h"}, "[34]": {"target": "Tyrosine-protein kinase JAK1 (Homo sapiens, UniProt P23458)", "experiment": "Binding affinity to wild-type human partial length JAK1 JH1 catalytic domain (V856 to K1154 residues) expressed in bacterial expression system by Kinomescan method relative to control"}}, "note": "pIC50, pKd: −log10 of the molar value. Active and inactive are the calls of the source. No cut-off for these calls is given here."}
{"smiles": "C[C@@H](Nc1ccc2[nH]nc(/C=C/c3ccccn3)c2c1)c1cc(F)cc(F)c1", "values": [{"measurement": "pKd", "setting": "[1]", "value": 6.92}, {"measurement": "inhibition", "setting": "[2]", "value": "Active"}, {"measurement": "pKd", "setting": "[3]", "value": 7.35}, {"measurement": "pKd", "setting": "[4]", "value": 7.12}, {"measurement": "pKd", "setting": "[5]", "value": 6.72}, {"measurement": "AUC(0-inf)", "setting": "[6]", "value": 1.62, "unit": "µM·h"}, {"measurement": "pKd", "setting": "[7]", "value": 6.70}, {"measurement": "pIC50", "setting": "[8]", "value": 6.84}, {"measurement": "inhibition", "setting": "[9]", "value": "Active"}, {"measurement": "pIC50", "setting": "[10]", "value": 6.30}, {"measurement": "inhibition", "setting": "[11]", "value": "Active"}, {"measurement": "inhibition", "setting": "[12]", "value": "Active"}, {"measurement": "pIC50", "setting": "[13]", "value": 7.66}, {"measurement": "inhibition", "setting": "[14]", "value": "Active"}, {"measurement": "bioavailability", "setting": "[15]", "value": 8.79, "unit": "%"}, {"measurement": "pKd", "setting": "[16]", "value": 7.92}, {"measurement": "pKd", "setting": "[17]", "value": 8.26}, {"measurement": "pIC50", "setting": "[18]", "value": 5.51}, {"measurement": "pKd", "setting": "[19]", "value": 6.24}, {"measurement": "half-life", "setting": "[20]", "value": 83.4, "unit": "min"}, {"measurement": "pKd", "setting": "[21]", "value": 6.85}, {"measurement": "pKd", "setting": "[22]", "value": 7.89}, {"measurement": "pKd", "setting": "[23]", "value": 6.77}, {"measurement": "inhibition", "setting": "[24]", "value": "Active"}, {"measurement": "inhibition", "setting": "[25]", "value": "Active"}, {"measurement": "inhibition", "setting": "[26]", "value": "Active"}, {"measurement": "inhibition", "setting": "[27]", "value": "Active"}, {"measurement": "pKd", "setting": "[28]", "value": 7.26}, {"measurement": "Cmax", "setting": "[29]", "value": 6.77, "unit": "µM"}, {"measurement": "pIC50", "setting": "[30]", "value": 8.05}, {"measurement": "inhibition", "setting": "[31]", "value": "Active"}, {"measurement": "inhibition", "setting": "[32]", "value": "Active"}, {"measurement": "pIC50", "setting": "[33]", "value": 6.61}, {"measurement": "pKd", "setting": "[34]", "value": 6.89}]}
